Legend:
[1] = target: T1, RORγ-LBD (Homo sapiens, UniProt P51449); experiment: RORγ-Ligand Binding Domain (LBD) TR-FRET Assay; assay type: biochemical;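 as to TR-FRET Assay Max Response: 665/615 nm ratio relative to signal without ursolic acid or compound set at 100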
T1 construct: made in house; host or cells: SF9 cells (baculovirus)
T1 sequence (P51449 269-508 limits assumed): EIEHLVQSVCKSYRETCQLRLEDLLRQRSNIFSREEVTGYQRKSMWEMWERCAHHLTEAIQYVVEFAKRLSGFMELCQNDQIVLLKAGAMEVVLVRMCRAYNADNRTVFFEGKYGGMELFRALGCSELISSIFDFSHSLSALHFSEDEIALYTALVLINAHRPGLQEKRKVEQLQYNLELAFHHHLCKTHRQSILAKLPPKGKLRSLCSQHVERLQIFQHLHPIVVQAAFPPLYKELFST
In short: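 Lysate from SF9 cells expressing His-RORγ-LBD is diluted to about 3 nM final in 50 mM Tris pH 7.0 assay buffer. A biotin-tagged SRC1 LXXLL peptide goes in at 200 nM final, plus ursolic acid at 2 μM final. Test compounds carry 1% DMSO final; signal read by TR-FRET.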

[2] = target: T2, Gal4-RORγ-LBD (Homo sapiens, UniProt P51449); experiment: Gal4-RORγ Luciferase Reporter Assay in HEK-293T Cells; assay type: cell-based; settings: HEK-293 cells
T2 construct: expressed in transfected cells; host or cells: HEK-293 cells (pcDNA3.1neo plasmid)
T2 sequence (P51449 269-508 limits assumed): T1 sequence (P51449 269-508 limits assumed)
In short: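 In transfected HEK-293 cells (Gal4-RORγ-LBD, Gal4-luciferase), test agents with 2 μM ursolic acid were incubated overnight at 37 °C before luminescent detection. Values are relative to the ursolic-acid-free, compound-free signal (100).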

[3] = luciferase reporter, with 2 μM ursolic acid

EC50 [1] | EC50 [2, 3] | EC50 ([2]; 2 μM ursolic acid) | Structure (SMILES) | TR-FRET Assay Max Response [1] | Gal4-RORγ Assay Max Response [2, 3] | Gal4-RORγ Assay Max Response ([2]; 2 μM ursolic acid)
< 500 nM | 500 to 5000 nM | – | O=C(O)CC[C@H]1CN(S(=O)(=O)c2cccc(C(F)(F)F)c2)c2cc(-c3cnn4ccccc34)ccc2O1 [Compound 4O, (S)-3-(6-(pyrazolo[1,5-a]pyridin-3-yl)-4-((3-(trifluoromethyl)-phenyl)sulfonyl)-3,4-dihydro-2H-benzo[b][1,4]oxazin-2-yl)propanoic acid] | *** (The symbol “***” indicates a value in the range of greater than 150 to 200) | ** (The symbol “**” indicates a value in the range of greater than 90 to 150) | –
< 500 nM | < 500 nM | – | O=C(CC[C@H]1CN(S(=O)(=O)c2cccc(C(F)(F)F)c2)c2cc(-c3cccc(F)c3F)ccc2O1)N1CCS(=O)(=O)CC1 [Compound 23N, (S)-3-(6-(2,3-difluorophenyl)-4-((3-(trifluoromethyl)-phenyl)sulfonyl)-3,4-dihydro-2H-benzo[b][1,4]oxazin-2-yl)-1-(1,1-dioxidothiomorpholino)propan-1-one] | **** (The symbol “****” indicates a value greater than 200) | *** (The symbol “***” indicates a value in the range of greater than 150 to 200) | –
< 500 nM | – | < 500 nM | Cn1cc(C(=O)NC[C@H]2CN(S(=O)(=O)c3cccc(C(F)(F)F)c3)c3cc(-c4cccc(F)c4Cl)ccc3O2)cn1 [Compound 30CD, (S)-N-((6-(2-chloro-3-fluoro-phenyl)-4-((3-(trifluoromethyl)-phenyl)sulfonyl)-3,4-dihydro-2H-benzo[b][1,4]oxazin-2-yl)methyl)-1-methyl-1H-pyrazole-4-carboxamide] | *** (The symbol “***” indicates a value in the range of greater than 150 to 200) | – | ** (The symbol “**” indicates a value in the range of greater than 90 to 150)
< 500 nM | < 500 nM | – | N#CCC(=O)NC[C@H]1CN(S(=O)(=O)c2cccc(C(F)(F)F)c2)c2cc(-c3cc(F)ccc3F)ccc2O1 [Compound 30AP, (S)-2-cyano-N-((6-(2,5-difluoro-phenyl)-4-((3-(trifluoromethyl)-phenyl)sulfonyl)-3,4-dihydro-2H-benzo[b][1,4]oxazin-2-yl)methyl)acetamide] | *** (The symbol “***” indicates a value in the range of greater than 150 to 200) | * (The symbol “*” indicates a value in the range of 25 to 90) | –
< 500 nM | < 500 nM | – | COc1cc(F)cc(-c2ccc3c(c2)N(S(=O)(=O)c2cccc(C(F)(F)F)c2)C[C@H](CCC(=O)O)O3)c1F [Compound 4AZ, (S)-3-(6-(2,5-difluoro-3-methoxyphenyl)-4-((3-(trifluoromethyl)phenyl)-sulfonyl)-3,4-dihydro-2H-benzo[b][1,4]oxazin-2-yl)propanoic acid] | **** (The symbol “****” indicates a value greater than 200) | ** (The symbol “**” indicates a value in the range of greater than 90 to 150) | –
< 500 nM | < 500 nM | – | Cc1ccc(-c2ccc3c(c2)N(S(=O)(=O)c2cccc(C(F)(F)F)c2)C[C@H](CCC(=O)O)O3)cc1 [Compound 2X, (S)-3-(6-(p-tolyl)-4-((3-(trifluoromethyl)phenyl)-sulfonyl)-3,4-dihydro-2H-benzo[b][1,4]oxazin-2-yl)propanoic acid] | **** (The symbol “****” indicates a value greater than 200) | ** (The symbol “**” indicates a value in the range of greater than 90 to 150) | –
< 500 nM | – | < 500 nM | COc1ccc(F)c(-c2ccc3c(c2)N(S(=O)(=O)c2cccc(C(F)(F)F)c2)C[C@H](CC(C)(C)C(=O)O)O3)c1F [Compound 32BK, (S)-3-(6-(2,6-difluoro-3-methoxyphenyl)-4-((3-(trifluoromethyl)phenyl)sulfonyl)-3,4-dihydro-2H-benzo[b][1,4]oxazin-2-yl)-2,2-dimethylpropanoic acid] | *** (The symbol “***” indicates a value in the range of greater than 150 to 200) | – | ** (The symbol “**” indicates a value in the range of greater than 90 to 150)
< 500 nM | < 500 nM | – | O=C(O)CC[C@H]1CN(S(=O)(=O)c2cccc(C(F)(F)F)c2)c2cc(-c3cccc(Cl)n3)ccc2O1 [Compound 4I, (S)-3-(6-(6-chloropyridin-2-yl)-4-((3-(trifluoromethyl)phenyl)-sulfonyl)-3,4-dihydro-2H-benzo[b][1,4]oxazin-2-yl)propanoic acid] | *** (The symbol “***” indicates a value in the range of greater than 150 to 200) | ** (The symbol “**” indicates a value in the range of greater than 90 to 150) | –
< 500 nM | < 500 nM | – | O=C(O)CC[C@H]1CN(S(=O)(=O)c2cccc(C(F)(F)F)c2)c2cc(-c3cc(F)cc(C(F)(F)F)c3)ccc2O1 [Compound 2AE, (S)-3-(6-(3-fluoro-5-(trifluoromethyl)phenyl)-4-((3-(trifluoromethyl)phenyl)-sulfonyl)-3,4-dihydro-2H-benzo[b][1,4]oxazin-2-yl)propanoic acid] | **** (The symbol “****” indicates a value greater than 200) | *** (The symbol “***” indicates a value in the range of greater than 150 to 200) | –
< 500 nM | 500 to 5000 nM | – | O=C(O)CC[C@H]1CN(S(=O)(=O)c2cccc(C(F)(F)F)c2)c2cc(-c3ccccc3C(F)(F)F)ccc2O1 [Compound 2BM, (S)-3-(6-(2-(trifluoromethyl)-phenyl)-4-((3-(trifluoromethyl)-phenyl)sulfonyl)-3,4-dihydro-2H-benzo[b][1,4]oxazin-2-yl)propanoic acid] | *** (The symbol “***” indicates a value in the range of greater than 150 to 200) | ** (The symbol “**” indicates a value in the range of greater than 90 to 150) | –
< 500 nM | < 500 nM | – | Cc1cc(F)cc(-c2ccc3c(c2)N(S(=O)(=O)c2cccc(C(F)(F)F)c2)C[C@H](CCC(=O)O)O3)c1 [Compound 2BN, (S)-3-(6-(3-fluoro-5-methyl-phenyl)-4-((3-(trifluoromethyl)-phenyl)sulfonyl)-3,4-dihydro-2H-benzo[b][1,4]oxazin-2-yl)propanoic acid] | *** (The symbol “***” indicates a value in the range of greater than 150 to 200) | ** (The symbol “**” indicates a value in the range of greater than 90 to 150) | –
< 500 nM | < 500 nM | – | O=C(O)CC[C@H]1CN(S(=O)(=O)c2cccc(C(F)(F)F)c2)c2cc(-c3cc(C(F)(F)F)ccc3F)ccc2O1 [Compound 2O, (S)-3-(6-(2-fluoro-5-(trifluoromethyl)phenyl)-4-((3-(trifluoromethyl)phenyl)-sulfonyl)-3,4-dihydro-2H-benzo[b][1,4]oxazin-2-yl)propanoic acid] | *** (The symbol “***” indicates a value in the range of greater than 150 to 200) | *** (The symbol “***” indicates a value in the range of greater than 150 to 200) | –
< 500 nM | 500 to 5000 nM | – | COc1ccc(-c2ccc3c(c2)N(S(=O)(=O)c2cccc(C(F)(F)F)c2)C[C@H](CCC(=O)O)O3)cc1 [Compound 2U, (S)-3-(6-(4-methoxyphenyl)-4-((3-(trifluoromethyl)phenyl)-sulfonyl)-3,4-dihydro-2H-benzo[b][1,4]oxazin-2-yl)propanoic acid] | *** (The symbol “***” indicates a value in the range of greater than 150 to 200) | * (The symbol “*” indicates a value in the range of 25 to 90) | –
< 500 nM | – | < 500 nM | O=C(O)CC[C@H]1CN(S(=O)(=O)c2cccc(C(F)(F)F)c2)c2cc(-c3cccc(Cl)c3F)c(Cl)cc2O1 [Compound 22J, (S)-3-(7-chloro-6-(3-chloro-2-fluorophenyl)-4-((3-(trifluoro-methyl)phenyl)sulfonyl)-3,4-dihydro-2H-benzo[b][1,4]oxazin-2-yl)propanoic acid] | *** (The symbol “***” indicates a value in the range of greater than 150 to 200) | – | ** (The symbol “**” indicates a value in the range of greater than 90 to 150)
< 500 nM | 5000 to 10000 nM | – | O=C(O)CC[C@H]1CN(S(=O)(=O)c2cccc(C(F)(F)F)c2)c2cc(-c3cccc4nccn34)ccc2O1 [Compound 4P, (S)-3-(6-(imidazo[1,2-a]pyridin-5-yl)-4-((3-(trifluoromethyl)-phenyl)sulfonyl)-3,4-dihydro-2H-benzo[b][1,4]oxazin-2-yl)propanoic acid] | ** (The symbol “**” indicates a value in the range of greater than 90 to 150) | ** (The symbol “**” indicates a value in the range of greater than 90 to 150) | –

From patent US10611740B2, “Aryl dihydro-2H-benzo[b][1,4]oxazine sulfonamide and related compounds for use as agonists of RORγ and the treatment of disease” (Lycera Corporation, priority 2015, dated 2020)
